Experimental data taken from patent US20240041842A1, “PHARMACEUTICAL COMPOSITION FOR INHIBITING CANCER METASTASIS” (INDUSTRY-ACADEMIC COOPERATION FOUNDATION, YONSEI UNIVERSITY, priority 2021, published 2024).

Legend:
[1] = system: Intracellular citrate; assay: Citrate assay; type: cell-based, human; conditions: HBEC-KL; 8 mM MP or 3 mM MOG in the presence of 50 uM CQ
Experimental: Intracellular citrate levels were calculated in the pmol range using a citrate assay kit (Biovision, K655). After sonication, proteins were removed from the supernatant using a 10 kDa molecular weight cutoff spin column, followed by incubation at room temperature for 30 minutes with 50 μl citrate reaction mixture comprising enzyme mixture, developer and citrate probe. Citrate content was measured by reading OD 570 nm with an Envision Multimode Plate Reader (PerkinElmer 2105-0010, Waltham, MA, USA). After correcting the background in all readings, the value of each sample was determined and normalized to the protein concentration of each sample.

[2] = system: Snail; assay: Western blot of Snail protein; type: cell-based, human; conditions: for effect of chloroquine (CQ) on Snail levels: MP or MOG combined with CQ
Experimental: (§1) Cells were harvested, washed with PBS, and lysed on ice with RIPA buffer containing protease and phophatase inhibitor cocktail (GenDEPOT). After 15 minutes of incubation, the cell lysates were centrifuged at 15,000 rpm at 4° C. for 10 minutes. Protein concentration was measured by Bradford assay (Bio-rad, 500-0006). Equal amounts of total protein were placed on an SDS gel electrophoresis and transferred to a PVDF membrane (Bio-rad). The membrane was blocked with 5% skim milk for 1 hour at room temperature and incubated overnight at 4° C. with primary antibody in a buffer containing 0.1% Tween-20. Subsequently, the membrane was washed three times with Tween-PBS buffer and incubated for 1 hour at room temperature using a secondary antibody diluted in blocking buffer containing 0.1% Tween-20. Subsequently, the membrane was washed three times for 10 minutes each using Tween-TBS. Densitometry of Western blots was measured using ImageJ software.
[…] For autophagy activation, cells were'treated with 2 μM rapamycin (Selleckchem, S1039) for 5 hours. Modulation of intracellular ROS was performed with N-acetyl-cysteine (10 mM) (Sigma, A7250), hydrogen peroxide solution (100 μM to 200 μM) (Sigma, 216763), or CDDO-ME NRF2 activator (50 nM, 100 nM) (Sellckchem, S8078) for 4 to 24 hours. Intercellular calcium signal control was performed for 1 hour using BAPTA-AM (20 μM) (Sigma, A1076) or Calmidazolium Chloride (2.5 μM) (Sigma, C3930). […] For TFEB protein phosphorylation, tacrolimus (1 μM) (Selleckchem, S5003) was treated for 1 hour. […] During siRNA treatment, each siRNA was treated to a concentration of 40 to 50 nM and treated together with Lipofectamine RNAiMax (Thermo Fisher Scientific, 13778150) for transformation, and were used for experiments 48 to 72 hours later. For cDNA treatment, each cDNA was treated to a concentration of 1 to 2 μg in a 6-well plate and treated with Lipofectamine 2000 (Thermo Fisher Scientific, 11668019) for transformation, and were used for experiments 24 hours later.

[3] = system: acetylated Snail; assay: Immunoprecipitation-immunoblot of acetylated Snail; type: cell-based, human; conditions: A549 luciferase cell line in vitro; 50 uM STO-609, 24 hours
Experimental: (§2) Cell lysates (1 μg protein) were incubated overnight at 4° C. on anti-FLAG® M2 Affinity Gel (Sigma, A2220) or anti-acetyl-lysine antibody coated agarose (ImmuneChem Pharmaceuticals, ICP0388). The immunoprecipitate was then washed three times in IP buffer, and the immunoprecipitated complex was dissolved and separated by boiling in IP buffer for 5 minutes.
For SDS-PAGE electrophoresis, the immunoprecipitated complex was transferred to a nitrocellulose membrane and the membrane was blocked and then incubated for 1 hour at room temperature with Primary antibody and secondary antibody (VeriBlot for IP Detection Reagent (HRP) (Abcam, #ab131366), and anti-mouse IgG tor IP (HRP) (Abeam, #ab131368)).
After washing 3 times, the membrane was incubated with the secondary antibody.

[4] = system: TFEB; assay: Western blot / immunoprecipitation-immunoblot of TFEB (acetylated, phosphorylated, total); type: cell-based, human; conditions: HBEC-KL; 50 uM STO-609, 24 hours
Experimental: FIG. 11J illustrates a diagram of immunoblot results of the […] a control (left), and the immunoprecipitation-immunoblot result of TFEB acetylated HBEC-KL cells under the same conditions (right) is also shown,
as §1
as §2, with “For immunoprecipitation, equal amounts of lysate and Co-IP buffer (40 mM HEPES, pH 7.4, 120 mM NaCl, 2 mM EDTA, 0.3% CHAPS (Sigma, 10810118001), 10 mM pyrophosphate (Sigma, 221368), 10 mM glycerophosphate (Sigma, G9422), 50 mM NaF, phosphatase and protease inhibitor mixture) were mixed. Cell” for “Cell”

[5] = system: LC3; assay: Autophagic flux (LC3 Western blot, mRFP-GFP-LC3 lysosomal delivery assay); type: cell-based, human; conditions: HBEC-KL cell line; NAC or 50 uM STO-609, 24 hours
Experimental: as §1, with “Representative GFP-LC3, RFP-LC3 and overlapping images are shown. In addition, red puncta (mRFP+/GFP−) and yellow puncta (mRFP+/GFP+) per cell were quantified and graphed (n=15 cells/treatment). Cells” for “Cells”

[6] = system: A549-luc cells; assay: A549-luc tail vein injection metastasis model; type: in vivo; conditions: nude mice; 25 mg/kg, 100 mg/kg, qd, p.o. 28 consecutive days; compared to the vehicle-treated group
Experimental: FIG. 13E illustrates role of STO-609 on cancer metastasis in an A549-luc tail vein injection model. After intravenous injection of A549-luc cells into nude mice, vehicle or STO-609 (25 mg/kg and 100 mg/kg qd) was injected for 28 days starting one day after the injection. A picture taken of a bioluminescent image when 4 weeks have elapsed after injection is shown (above). Analysis results of the total metastasis burden by photonic flux are shown (below). FIG. 13H illustrates the role of BMS303141 on cancer metastasis in an A549-luc tail vein injection model. A549-luc cells were intravenously injected into nude mice, and then vehicle or BMS303141 (100 mg/kg q.d.) was injected for 20 days starting one day after the injection. A bioluminescence image when 3 weeks have elapsed after injection is shown. 7- to 9-week-old BALB/c-nu Sic mice were obtained from SLC, Inc. (Shizuoka, Japan) and used, A549-luc cells (#JCRB1414) or SNAI1 shRNA-mediated knockdown A549-luc cells were injected at 3-4.5×10^6 cells through the tail vein of mice. After 3 to 4 weeks, metastasis was monitored by bioluminescence imaging analysis. More specifically, after injecting D-luciferin (75 mg/kg) (PerkinElmer, 122799) into the abdominal cavity of the mouse, images were obtained using an IVIS imaging system (IVIS 200, PerkinElmer, Waltham, MA, USA) in the supine position. Lung tissue was obtained for histopathological analysis. Images were analyzed using commercially available software (ImageScope; Aperio Technologies). In the STO-609 efficacy test, STO-609 (25 mg, 100 mg/kg/day) was orally administered to mice on the day of injection. In the BMS303141 efficacy test, BMS303141 (100 mg/kg/day) was orally administered to mice on the day of injection.

Structure (SMILES)	effect of chloroquine (CQ) on citrate levels [1]	expression level of Snail decreased by siIDH1 ([2]; HBEC-KL, 3 mM MOG)	Snail levels when ACLY was reduced ([2]; HBEC-KL, MOG supplemented condition, ACLY siRNA)	effect of chloroquine (CQ) on Snail levels ([2]; HBEC-KL)	Snail expression level decreased by siCS ([2]; HBEC-KL, 8 mM MP)	acetylated Snail [3]	acetylated TFEB [4]	Snail protein ([2]; HBEC-KL cell line, STO-609)	abnormal increase in Snail expression level by AMG-510 ([2]; KL cell lines, 1 uM AMG-510 and 50 uM STO-609)	autophagic flux [5]	total metastasis burden (photonic flux) [6]	total number of lung metastases [6]
COC(=O)CCC(=O)C(=O)OC [MOG, dimethyl-2-oxoglutarate]	completely reverses	restored	did not recover	completely reverses								
COC(=O)C(C)=O [MP, methyl pyruvate]	completely reverses			completely reverses	not increased							
O=C(O)c1ccc2c3c1cccc3c(=O)n1c3ccccc3nc21 [STO-609]						reduced	reduces	reduction	reduced	decreased	reduced	reduced
